Results taken from US20060041013A1, “Alanosine formulations and methods of use” (priority 2004, published 2006).
Values joined by “and” are separate entries in the source; they are usually repeats but may differ in a detail not shown here. Equal values may be shown once. Read-outs that look alike come from different tables or passages of the source.

What was measured:
[1] = Chirality analysis: conversion of L-alanosine to D-alanosine (chiral HPLC); assay type: physicochemical
Procedure: The following HPLC procedure was used to separate the L- and D-enantiomers of alanosine. The HPLC system (Agilent 1100) employed a 4.6 mm×150 mm column (Phenomenex) containing 5 μm particles (Chirex 3126, (D)-penicillamine) as the stationary phase. The system was equipped with both UV and polarimeter detectors. The UV detector was set to 254 nm to monitor products being eluted from the column, while the polarimeter detector was set to 670 nm. The eluent was 2 mM CuSO4/MeOH 70-30. The flow rate was 1.7 mL/min. at a pressure of 200 bar. For each run, a 100 μL sample containing 0.5 mg/mL in 2 mM CuSO4 was injected onto the column. […] To reverse the elution order, (L)-penicillamine could be used.

H-Meso-1 = test: Mesothelioma xenograft model (H-Meso-1) in SCID mice; assay type: in vivo; conditions: thirty-one days following treatment; docetaxel 10 mg/kg intraperitoneally daily Mon-Fri, SDX-102 50 mg/kg osmotic pump; start 100 mm^3; control 1272
[2] = humans, intravenous, biphasic plasma clearance; times approximate; cited from earlier work
NCI-H2452 [3] = test: Docetaxel, 5-FU, SDX-102 alone or combined, MTT/MTS cytotoxicity (Example 4); assay type: cell-based; conditions: Homo sapiens; NCI-H2452, Mesothelioma, single agent, MTT 72 hours
NCI-H2452 [4] = test: Cell viability MTT assay (Example 3); assay type: cell-based; conditions: Homo sapiens, 72 h; NCI-H2452, Mesothelioma, MTAP Negative; 3 days
BxPC3 = test: Cell viability MTT assay (Example 3); assay type: cell-based; conditions: Homo sapiens, BXPC-3, 72 h; BxPC3, Pancreatic, MTAP Negative; 3 days
PANC-1 = test: Docetaxel, 5-FU, SDX-102 alone or combined, MTT/MTS cytotoxicity (Example 4); assay type: cell-based; conditions: Homo sapiens; PANC-1, Pancreatic, single agent, MTT 72 hours
[5] = Cell viability MTT assay (Example 3); assay type: cell-based; conditions: 72 h; A-594, NSCLC, MTAP Negative; 3 days
HS-766T = test: Cell viability MTT assay (Example 3); assay type: cell-based; conditions: Hs766T, 72 h, Pancreatic, MTAP Positive, 3 days
mice = conditions: cited from earlier work
NCI-H292 = test: Docetaxel, 5-FU, SDX-102 alone or combined, MTT/MTS cytotoxicity (Example 4); assay type: cell-based; conditions: Homo sapiens; NCI-H292, NSCLC, single agent, MTT 72 hours
NCI-H226 = test: Cell viability MTT assay (Example 3); assay type: cell-based; conditions: Homo sapiens, 72 h; NCI-H226, Mesothelioma, MTAP Positive; 3 days
A549 NSCLC xenografts = test: MTAP-negative A549 NSCLC xenografts in SCID mice; assay type: in vivo; conditions: 60 days monitoring, doses as administered
physchem = assay type: physicochemical
Procedure: The solution was stirred on a stir plate at room temperature and the pH was adjusted by adding 20 microliter (μL) aliquots of 1N NaOH. After the addition of each aliquot, the resulting pH was measured potentiometrically and the results were recorded. The results of the titration appear in FIG. 1. The solution was also visually inspected during the course of the titration experiment to observe full dissolution of the alanosine.

NCI-H322M = test: Docetaxel, 5-FU, SDX-102 alone or combined, MTT/MTS cytotoxicity (Example 4); assay type: cell-based; conditions: Homo sapiens, NSCLC, single agent, MTT 72 hours
[6] = cited from earlier work
[7] = t1 yr., pH 7.5, 25° C., listed as L
[8] = t1 yr., pH 8.5, 25° C., listed as L
[9] = t6 mo., pH 8.5, 25° C., listed as L

NC(CN(O)N=O)C(=O)O [L-alanosine, L(−)-2-amino-3-nitrosohydroxylaminopropionic acid]
conversion to D-alanosine ([1]; after one year at 5° C., pH 7.5 or 8.5): no conversion to D-alanosine
conversion to D-alanosine at pH 8.5 compared to pH 7.5 ([1]; storage at 25° C.): 5-10 times
% Total Peak Area L ([1]; t0): 100%
% Total Peak Area L ([1]; t1 yr., pH 7.5, 5° C.): 100%
% Total Peak Area D [1, 7]: 0.99% and 0.78%
% Total Peak Area L [1, 7]: 99.01% and 99.22%
% Total Peak Area L ([1]; t1 yr., pH 8.5, 5° C.): 100%
% Total Peak Area D [1, 8]: 4.45% and 4.56%
% Total Peak Area L [1, 8]: 95.55% and 95.44%
% Total Peak Area L ([1]; t6 mo., pH 8.5, 5° C.): 100%
% Total Peak Area D [1, 9]: 2.03% and 2.04%
% Total Peak Area L [1, 9]: 97.97% and 97.96%
mean tumor volume (H-Meso-1): 1035 mm^3
t1/2α [2]: ~14 min
t1/2β [2]: ~99 min
IC50 (NCI-H2452 [3]): 1000 ± 500 nM
IC50 (NCI-H2452 [4]): 500 nM
IC50 (BxPC3): 6000 nM
IC50 (PANC-1): 10000 ± 5000 nM
IC50 [5]: 400 nM
IC50 (HS-766T): > 20000 nM
LD50 (mice; administered intraperitoneally): 600 mg/kg
LD50 (mice; given intravenously): 300 mg/kg
IC50 (NCI-H292): 200 ± 60 nM
IC50 (NCI-H226): 1500 nM
tumor growth inhibition (A549 NSCLC xenografts): did not induce tumor growth inhibition
solubility in water (physchem): poor solubility
pH that must be exceeded for full dissolution (physchem; free base, approx. 20 mg/mL in water): exceeded 6.2
pKa (physchem; pKa (first)): ~5.5
pKa (physchem; pKa (second)): ~8.5
IC50 (NCI-H322M): 6000 ± 1000 nM
single bolus dose at which renal toxicity reported ([6]; human, in vivo): above 4 g/m^2 body weight
dose-limiting toxicity ([6]; phase II, adults with acute non-lymphoblastic leukemia, continuous infusion about 125 mg/m^2 for 5 days): mucositis
